According to patent US20250263370A1 (Tay Therapeutics Limited, priority 2022, published 2025):
Several values for one entry are separate records, joined by “and”; a condition that tells them apart may be missing. Equal values may be shown once. Marks after values point to notes of the source that are not given here.

System: rat anti-collagen IgG1 antibodies
Assay: Rat anti-collagen IgG1 antibodies in serum of CIA rats at day 21
Assay type: in vivo, Lewis rat
Conditions: for Average rat anti-collagen IgG1 levels, Mean: day 21, group mean; for Final Rat Anti-Collagen IgG1 Antibody Con. / Rat Anti-Collagen IgG1 Antibody Con.: day 21, per animal; for levels of rat anti-collagen IgG1 antibodies relative to CIA induced, no treatment: day 21

CNC(=O)c1[nH]c(C(=O)NC2CCC2)cc1O[C@@H](C)c1ccccc1 (stereo in doubt) [Example 101, N^5-cyclobutyl-N^2-methyl-3-(1-phenylethoxy)-1H-pyrrole-2,5-dicarboxamide]
Average rat anti-collagen IgG1 levels, Mean (Group 5 (CIA), 3 mg/kg): 7247.32* | Final Rat Anti-Collagen IgG1 Antibody Con. (Group 5 (CIA), 3 mg/kg): 7202.91 units/ml and 5737.56 units/ml and 596.39 units/ml and 17040.09 units/ml and 6834.32 units/ml and 2359.32 units/ml and 1570.97 units/ml and 16636.97 units/ml | Average rat anti-collagen IgG1 levels, Mean (Group 6 (CIA), 10 mg/kg): 10839.90 | Final Rat Anti-Collagen IgG1 Antibody Con. (Group 6 (CIA), 10 mg/kg): 44339.86 units/ml and 9577.48 units/ml and 15070.08 units/ml and 545.06 units/ml and 12072.29 units/ml and 3772.28 units/ml and 782.47 units/ml and 559.69 units/ml | Average rat anti-collagen IgG1 levels, Mean (Group 7 (CIA), 30 mg/kg): 1447.13** | Final Rat Anti-Collagen IgG1 Antibody Con. (Group 7 (CIA), 30 mg/kg): 219.33 units/ml and 81.22 units/ml and 1208.05 units/ml and 4311.36 units/ml and 1799.62 units/ml and 548.72 units/ml and 1961.63 units/ml | Rat Anti-Collagen IgG1 Antibody Con. (before multiplying by Fold 1000, Group 5 (CIA), 3 mg/kg): 7.20 units/ml and 5.74 units/ml and 0.60 units/ml and 17.04 units/ml and 6.83 units/ml and 2.36 units/ml and 1.57 units/ml and 16.64 units/ml | Rat Anti-Collagen IgG1 Antibody Con. (before multiplying by Fold 1000, Group 6 (CIA), 10 mg/kg): 44.34 units/ml and 9.58 units/ml and 15.07 units/ml and 0.55 units/ml and 12.07 units/ml and 3.77 units/ml and 0.78 units/ml and 0.56 units/ml | Rat Anti-Collagen IgG1 Antibody Con. (before multiplying by Fold 1000, Group 7 (CIA), 30 mg/kg): 0.22 units/ml and 0.08 units/ml and 1.21 units/ml and 4.31 units/ml and 1.80 units/ml and 0.55 units/ml and 1.96 units/ml | levels of rat anti-collagen IgG1 antibodies relative to CIA induced, no treatment (1 mg/kg, 10 mg/kg as printed, p<0.05): significantly decreased levels | levels of rat anti-collagen IgG1 antibodies relative to CIA induced, no treatment (30 mg/kg, p<0.01): significantly decreased levels

CNC(=O)c1cc(C(=O)NC2CC2)cn(Cc2ccccc2)c1=O [GSK620]
Average rat anti-collagen IgG1 levels, Mean (Group 4 (CIA + GSK620)): 7532.82* | Final Rat Anti-Collagen IgG1 Antibody Con. (Group 4 (CIA + GSK620)): 9149.39 units/ml and 10971.56 units/ml and 258.62 units/ml and 1400.18 units/ml and 15017.25 units/ml and 2682.44 units/ml and 9308.00 units/ml and 11475.12 units/ml | Rat Anti-Collagen IgG1 Antibody Con. (before multiplying by Fold 2000, Group 4 (CIA + GSK620)): 4.57 units/ml and 5.49 units/ml and 0.13 units/ml and 0.70 units/ml and 7.51 units/ml and 1.34 units/ml and 4.65 units/ml and 5.74 units/ml

C[C@@H]1C[C@H]2[C@@H]3CCC4=CC(=O)C=C[C@]4(C)[C@@]3(F)[C@@H](O)C[C@]2(C)[C@@]1(O)C(=O)CO [dexamethasone]
Average rat anti-collagen IgG1 levels, Mean (Group 3 (CIA + Dex)): 7833.69* | Final Rat Anti-Collagen IgG1 Antibody Con. (Group 3 (CIA + Dexamethasone)): 22019.88 units/ml and 5250.27 units/ml and 1296.14 units/ml and 2541.14 units/ml and 4553.59 units/ml and 7925.50 units/ml and 7346.16 units/ml | Rat Anti-Collagen IgG1 Antibody Con. (before multiplying by Fold 2000, Group 3 (CIA + Dexamethasone)): 11.01 units/ml and 2.63 units/ml and 0.65 units/ml and 1.27 units/ml and 5.87 units/ml and 2.28 units/ml and 3.96 units/ml and 3.67 units/ml
